“Also recorded” adds a separate entry of the source. Non-standard residues stand in square brackets, D forms with d. (PEG)2 40 kDa = branched PEG of 40 kDa linked via the Cys side-chain thiol (code C2 = Cys(PEG)2 40 kDa)
How the values were obtained:
[1] = tested on: diet-induced obese mice; assay: Feeding study in diet-induced obese mice (food intake, body weight); assay type: in vivo; conditions: for % Food intake (FI) reductions Day 1: Day 1, based on vehicle responses; for % Food intake (FI) reductions Day 2: Day 2, based on vehicle responses; for % Food intake (FI) reductions Day 3: Day 3, based on vehicle responses; for anorectic effect: acute administration; for body weight / duration of reductions in food intake: single acute subcutaneous administration
Source text: NMUR1 knockout (Nmur1−/−) mice were generated using standard homologous recombination techniques. Nmur1 mice were subsequently transferred to Taconic Farms where they were either maintained on a 75% C57BL/6×25% 129S6/SvEv mixed genetic background or backcrossed six generations to C57BL/6. NMUR2 knockout (Nmur2−/−) mice were licensed from Deltagen Inc., San Mateo, Calif. and subsequently transferred to Taconic Farms where they were either maintained on a 75% C57BL/6×25% 129/OlaHsd mixed genetic background or backcrossed for seven generations to C57BL/6. NMUR1 and NMUR2 double knockout (Nmur1&2−/−) mice were generated by crossing N6 Nmur1−/− mice to N7 Nmur2−/− mice. Mice were individually housed in Tecniplast cages in a conventional SPF facility. Mice were initially maintained on a regular chow diet and then early in their life were switched to a high fat diet (D12492: 60% kcal from fat; Research Diets, Inc., New Brunswick, N.J.) with ad libitum access to water in a 12-hour light/12-hour dark cycle.
Ad libitum fed male diet-induced obese mice were weighed and dosed either i.p. or s.c. about 30 minutes prior to the onset of the dark phase of the light cycle and provided with a preweighed aliquot of high fat diet D12492 which was then weighed 2 hours and 18 hours (day 1), 42 hours (day 2), 66 hours (day 3), and 90 hours (day 4) after the onset of the initial dark phase. Mice were weighed at the 18, 42, 66 and 90 hour time points.

[2] = Pharmacokinetic analysis using the FLIPR bioassay; assay type: in vivo; conditions: mice, 10 mg/kg subcutaneously, compared with hNMU-25
Procedure: Neuromedin U receptor agonist NMU12 exposure levels in dosed animals were measured using the bioassay and compared with hNMU-25 exposure levels. Animals were dosed subcutaneously with 10 mg/kg NMU12 or hNMU-25 and plasma was collected at various time points post-dose. The bioassay was a FLIPR-based assay, which was performed essentially as described above with the following modifications. Sample preparation prior to the assay was performed on ice to minimize degradation of plasma samples. The assay was run with 4% plasma as the final concentration. A three-point titration was done with the dosed plasma and tested on human NMUR1-expressing cell lines using FLIPR. The response after sample addition was taken as the maximum fluorescence units minus the fluorescence immediately prior to stimulation for each well. In addition to a three-point titration of dosed plasma samples, a 16-point titration of the peptide (hNMU-25 or NMU12) was run in 4% plasma (naive plasma) to serve as the standard. The concentration of the peptide in plasma was calculated based on extrapolations from the appropriate standard using the GraphPad Prism software.

[3] = biological target: hNMUR2 (Homo sapiens, UniProt Q9GZQ4); assay: FLIPR calcium mobilization assay, human NMUR2; assay type: cell-based; design: expressed in transfected cells; host or cells: FLP-In CHO or HEK-293 FLP-In cells (pcDNA5); HEK-293/aeq17 lines (pcDNA3.1) were also made; conditions: human NMUR2
Chain of hNMUR2 (Q9GZQ4 whole entry): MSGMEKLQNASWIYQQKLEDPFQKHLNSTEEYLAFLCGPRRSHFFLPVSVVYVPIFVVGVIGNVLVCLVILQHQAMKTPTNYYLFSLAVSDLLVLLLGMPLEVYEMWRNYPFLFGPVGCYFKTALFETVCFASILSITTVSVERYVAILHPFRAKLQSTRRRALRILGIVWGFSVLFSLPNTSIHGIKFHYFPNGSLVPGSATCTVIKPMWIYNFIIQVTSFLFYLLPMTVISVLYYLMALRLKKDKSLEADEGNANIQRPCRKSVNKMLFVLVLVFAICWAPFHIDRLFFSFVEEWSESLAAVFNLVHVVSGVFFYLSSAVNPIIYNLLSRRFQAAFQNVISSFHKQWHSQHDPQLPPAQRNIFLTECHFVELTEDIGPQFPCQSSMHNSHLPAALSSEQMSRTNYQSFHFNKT
Source text: (§1) Human, mouse or rat cDNAs encoding NMUR1 or NMUR2 (as described in Howard et al. Nature 406: 70-74 (2000) were subcloned in pcDNA5 (Invitrogen) and transfected into FLP-In CHO cells and HEK-293 FLP-In cells purchased from Invitrogen (Carlsbad, Calif.) using lipofectamine (Invitrogen). The Flp-In system allows integration and expression of a particular gene of interest at a specific genomic location utilizing the Flp recombinase from yeast. The transfected cells were selected by growth in medium containing 200 μg/mL hygromycin (Invitrogen). Populations were frozen at early passage numbers, and these stocks were used for further studies. Stable clones that expressed the mRNAs were identified functionally by FLIPR as well as by RT-PCR. […] Two different rodent NMUR1 cell lines were thus generated: one with the codon as predicted from the genomic databases and another cell line with an engineered methionine (ATG) as the start codon. Additionally, stable cell lines expressing the human receptors were generated in HEK-293/aeq17 cells which stably express the aequorin gene under the CMV promoter. The human NMUR2 cDNA was cloned into pcDNA3.1 and human NMUR1 was subcloned into pIRES-puro (Clontech, Mountain View, Calif.), after transfection cells were selected in media containing G418 and either hygromycin (NMUR2) or puromycin (NMUR1).
(§2) The NMU receptors signal primarily through Gαq/11 proteins; therefore calcium mobilization assays can be utilized for functional activity.
(§3) Stable cell lines expressing human and or rodent NMUR1 or human NMUR2 receptors were plated at a density of 12,000 cells per well overnight on poly-lysine coated 384-well black-walled plates. The following day, the media was removed from the plates and the cells were subsequently loaded with Fluo-3 (Molecular Probes), a calcium sensitive dye, diluted in FLIPR buffer (1× Hank's buffered saline containing 20 mM HEPES, 0.1% BSA, 2.5 mM probenecid (Sigma) and 1.6 mM TR40). All reagents are from Invitrogen unless otherwise noted. Peptide stocks were resuspended in DMSO at a stock concentration of 2 mM and diluted in FLIPR buffer on the day of the experiment to a 4 μM working stock solution.
(§4) After a 90 minute incubation at room-temperature, cell plates were loaded onto a FLIPR (Molecular Devices) to monitor cellular fluorescence (excitation=488 nm; emission=540 nm) before and after compound/peptide addition. Eight to twelve point dose responses were tested on NMUR-expressing cell lines using FLIPR with 1 μM peptide as the highest dose. The response after peptide addition was taken as the maximum fluorescence units minus the fluorescence immediately prior to stimulation for each well. EC50 values were calculated using GraphPad Prism (San Diego, Calif.) software.
(§5) In vitro responses of Neuromedin U receptor agonists (NMU1 to NMU25) in the FLIPR assay for human (Table 3), mouse (Table 4) and rat (Table 5) NMUR1 and NMUR2. EC50s are reported in nM values. Percent activity refers to the maximum response at 1 μM compared to the hNMU-25 response at the same concentration. NT=not tested.

[4] = biological target: T1, hNMUR1 (Homo sapiens, UniProt Q9HB89); assay: FLIPR calcium mobilization assay, human NMUR1; assay type: cell-based; design: expressed in transfected cells; host or cells: FLP-In CHO or HEK-293 FLP-In cells (pcDNA5); HEK-293/aeq17 lines (pIRES-puro) were also made; conditions: human NMUR1
T1 sequence (Q9HB89 1-426): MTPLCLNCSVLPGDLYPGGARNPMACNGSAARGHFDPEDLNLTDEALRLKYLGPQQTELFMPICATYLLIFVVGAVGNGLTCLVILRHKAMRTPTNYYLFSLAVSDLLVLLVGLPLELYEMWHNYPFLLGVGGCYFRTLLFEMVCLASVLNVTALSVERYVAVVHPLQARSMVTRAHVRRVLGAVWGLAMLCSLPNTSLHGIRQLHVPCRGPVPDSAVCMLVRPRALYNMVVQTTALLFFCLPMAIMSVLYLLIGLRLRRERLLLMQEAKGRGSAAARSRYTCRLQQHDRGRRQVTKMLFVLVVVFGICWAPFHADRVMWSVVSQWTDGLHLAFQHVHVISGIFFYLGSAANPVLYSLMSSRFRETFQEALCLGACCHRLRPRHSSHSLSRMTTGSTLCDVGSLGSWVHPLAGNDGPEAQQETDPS
Source text: as §1, §2, §3, §4, §5

Ac-C2-Ttds-FLFRPRN-CONH2 (Ac-CFLFRPRN-NH2; not fully specified (residue 1); printed as Ac-C2-Ttds-FLFRPRN-CONH2) [NMU16, C2 = Cys(PEG)240 kDa]
Body weight (BW) change (in grams) {relative to vehicle} Day 1 ([1]; 10 mg/kg): −0.3 grams
% Food intake (FI) reductions Day 1 ([1]; 10 mg/kg): 11%
Body weight (BW) change (in grams) {relative to vehicle} Day 1 ([1]; 30 mg/kg): −0.9 grams
% Food intake (FI) reductions Day 1 ([1]; 30 mg/kg): 25%

Ac-C2ASQSRGYFLFRPRN-CONH2 (Ac-C((PEG)2 40 kDa)ASQSRGYFLFRPRN-NH2) [NMU18, C2 = Cys(PEG)240 kDa]
extension of serum half-life by PEGylation [1]: two days
Body weight (BW) change (in grams) {relative to vehicle} Day 1 ([1]; 10 mg/kg): −2.6 grams
% Food intake (FI) reductions Day 1 ([1]; 10 mg/kg): 71%
Body weight (BW) change (in grams) {relative to vehicle} Day 2 ([1]; 10 mg/kg): −0.2 grams
% Food intake (FI) reductions Day 2 ([1]; 10 mg/kg): 40%

Ac-C2FRVDEEFQSPFASQSRGYFLFRPRN-CONH2 [NMU12] (Ac-C((PEG)2 40 kDa)FRVDEEFQSPFASQSRGYFLFRPRN-NH2)
Body weight (BW) change (in grams) {relative to vehicle} Day 1 ([1]; 10 mg/kg): −1.8 grams
% Food intake (FI) reductions Day 1 ([1]; 10 mg/kg): 51%
Body weight (BW) change (in grams) {relative to vehicle} Day 2 ([1]; 10 mg/kg): −1.3 grams
% Food intake (FI) reductions Day 2 ([1]; 10 mg/kg): 50%
Body weight (BW) change (in grams) {relative to vehicle} Day 3 ([1]; 10 mg/kg): −0.2 grams
% Food intake (FI) reductions Day 3 ([1]; 10 mg/kg): 15%
duration of reductions in food intake and body weight ([1]; NMUR1 knockout animals): two days post dose
duration of reductions in food intake and body weight ([1]; NMUR2 knockout animals): only overnight effects
anorectic effect ([1]; NMUR1/NMUR2 double knockout animals): no effect was observed
anorectic effect ([1]; wild-type animals): highly efficacious
cumulative food intake reduction relative to the vehicle treated group ([1]; chronic administration QD, Q2D or Q3D): 12-27%
food intake ([1]; peripheral administration, Nmur1 knockout mice): able to reduce food intake
crossing the blood-brain barrier ([1]; peripheral administration, inferred from knockout mice): capable of crossing the blood-brain barrier; also recorded: able to cross the blood-brain barrier
body weight [1]: significant reduction
duration of reductions in food intake [1]: three days
metabolic stability in vivo (plasma exposure) [2]: greater metabolic stability in vivo
half-life in human plasma: greater than three days

Ac-C2FRVDEEFQSPFASQSRGYFaWRPRN-CONH2 (Ac-C((PEG)2 40 kDa)FRVDEEFQSPFASQSRGYF[dA]WRPRN-NH2) [NMU14, C2 = Cys(PEG)240 kDa; a = D-Alanine]
Body weight (BW) change (in grams) {relative to vehicle} Day 1 ([1]; 50 mg/kg): −0.1 grams

Ac-C2GYFLFRPRN-CONH2 ({Ac-C(PEG 40 kDa)}-GYFLFRPRN-NH2) [NMU7, C2 = Cys(PEG)240 kDa]
Body weight (BW) change (in grams) {relative to vehicle} Day 1 ([1]; 10 mg/kg): −1.7 grams
% Food intake (FI) reductions Day 1 ([1]; 10 mg/kg): 44%
EC50 ([3]; FLIPR): 36.1 nM
% Activity ([3]; maximum response at 1 μM compared to hNMU-25): 91.8%
EC50 ([4]; FLIPR): 79.6 nM
% Activity ([4]; maximum response at 1 μM compared to hNMU-25 response at same concentration): 91.4%

Ac-C3FRVDEEFQSPFASQSRGYFLFRPRN-CONH2 (Ac-CFRVDEEFQSPFASQSRGYFLFRPRN-NH2; not fully specified (residue 1); printed as Ac-C3FRVDEEFQSPFASQSRGYFLFRPRN-CONH2) [NMU10, C3 = cysteine linked to cholesterol via the side-chain thiol]
Body weight (BW) change (in grams) {relative to vehicle} Day 1 ([1]; 10 mg/kg): −1.2 grams
% Food intake (FI) reductions Day 1 ([1]; 10 mg/kg): 24%

P1-FRVDEEFQSPFASQSRGYFLFRPRN-CONH2 ({branched PEG 40 kDa}-FRVDEEFQSPFASQSRGYFLFRPRN-NH2) [NMU1]
extension of serum half-life by PEGylation [1]: three days
Body weight (BW) change (in grams) {relative to vehicle} Day 1 ([1]; 10 mg/kg): −1.4 grams
% Food intake (FI) reductions Day 1 ([1]; 10 mg/kg): 57%
Body weight (BW) change (in grams) {relative to vehicle} Day 2 ([1]; 10 mg/kg): −1.7 grams
% Food intake (FI) reductions Day 2 ([1]; 10 mg/kg): 56%
Body weight (BW) change (in grams) {relative to vehicle} Day 3 ([1]; 10 mg/kg): −0.4 grams
% Food intake (FI) reductions Day 3 ([1]; 10 mg/kg): 22%
efficacy at reducing overnight food intake compared to hNMU-25 ([1]; acute subcutaneous administration): greater efficacy
body weight [1]: Significant reductions in body weight
duration of reductions in food intake [1]: three days post-dose
half-life in human plasma: greater than three days
